# Measured values as given in patent US20250011781A1, “METHODS AND COMPOSITIONS TARGETING NUCLEUS ACCUMBENS-ASSOCIATED PROTEIN-1 FOR TREATMENT OF AUTOIMMUNE DISORDERS AND CANCERS” (THE TEXAS A&M UNIVERSITY SYSTEM, priority 2021, published 2025).
# T1: NAC1 (Homo sapiens, UniProt Q96RE7)
# T1 sequence (Q96RE7 1-527): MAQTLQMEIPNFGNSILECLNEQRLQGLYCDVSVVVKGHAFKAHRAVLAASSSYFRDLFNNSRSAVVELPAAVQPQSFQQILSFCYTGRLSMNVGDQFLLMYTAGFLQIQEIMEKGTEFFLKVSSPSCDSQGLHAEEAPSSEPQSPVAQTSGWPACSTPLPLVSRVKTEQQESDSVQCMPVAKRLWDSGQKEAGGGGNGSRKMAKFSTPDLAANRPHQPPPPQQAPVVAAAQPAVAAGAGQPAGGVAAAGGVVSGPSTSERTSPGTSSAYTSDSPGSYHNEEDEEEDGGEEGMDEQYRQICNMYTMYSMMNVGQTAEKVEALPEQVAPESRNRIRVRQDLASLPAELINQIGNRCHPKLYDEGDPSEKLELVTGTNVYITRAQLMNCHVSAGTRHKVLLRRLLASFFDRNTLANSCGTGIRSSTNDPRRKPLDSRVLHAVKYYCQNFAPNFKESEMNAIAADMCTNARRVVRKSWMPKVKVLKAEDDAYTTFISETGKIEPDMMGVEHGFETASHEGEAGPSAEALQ
# Experiments:
# mouse CD8+ T cells = mouse CD8+ T cells cultured in CM from NAC1 KO B16-OVA cells supplemented with LA; type: cell-based; conditions: 2 mM or 5 mM LA
# Protocol: Next, mouse CD8^+ T cells in the CM from NAC1 KO mouse B16-OVA cells were cultured and the medium was supplemented with or without 2 mM or 5 mM LA. The addition of LA reduced the production of cytokines including TNF-alpha and IFN-gamma and increased the expression of PD-1 and TIM-3 of CD8^+ T cells (FIGS. 9A-9D). […] In parallel, NAC1 KO tumor cells were transfected with an LDHA expression retroviral vector or a retroviral backbone to overexpress LDHA in NAC1 KO B16-OVA. The mouse CD8^+ T cells in the CM were cultured from NAC1 KO B16-OVA cells overexpressing LDHA (NAC1 KO LDHA OE) or an empty control (NAC1 KO Mock). The overexpression of LDHA conferred NAC1 KO mouse tumor cells with the ability to suppress the production of cytokines and increased expression of PD-1 (FIGS. 9I-9L) and apoptosis (FIGS. 9M-9P) of mouse cytotoxic CD8^+ T cells.
# In vitro analysis of CD8^+ T cells. For cytotoxicity analysis, after 24 hours of activation 5×10^5 CD8^+ T cells were cultured with WT B16-OVA and NAC1 KO B16-OVA tumor cells in the ratio of 1:5 and 1:10 respectively. Cytotoxicity was measured by the CytoTox 96 Non-Radioactive Cytotoxicity Assay from Promega (#G1780, Madison, Wisconsin, USA). For cytokine expression analysis, the CD8^+ T cells were cultured with the conditional medium (CM) that was collected from WT B16-OVA and NAC1 KO B16-OVA melanoma cells for 12 hours. Before harvesting the cells, the cells were blocked with the Monensin Solution from BioLegend (#420701, San Diego, California, USA) for 4 hours. For apoptosis analysis, after 12 hours of activation the CD8^+ T cells were incubated with the CM that was collected from WT B16-OVA and NAC1 KO B16-OVA cells for 12 hours, in the absence or presence of L-LA from Sigma-Aldrich (St Louis, MI). […]
# Flow Cytometric analysis. […] Stained cell populations were acquired by LSRFortessa from BD Biosciences (Franklin, New Jersey, USA), and the results were analyzed by using FlowJo software from Tree Star (Ashland, Oregon, USA).
# NAC1 = target: T1, NAC1; conditions: cited from earlier work
# tumor growth = conditions: cited from earlier work
# Tregs = assay: treatment of Tregs with pro-inflammatory cytokines; type: cell-based, mouse
# Protocol: T cell culture. T cells were cultured in 48-well plates containing 1 ml RPMI 1640 (Invitrogen) with 10% fetal calf serum (Omega Scientific, CA). T cell isolation kits including mouse CD4^+ (#130-104-454), CD8a^+ (#130-104-075) and CD4^+ CD25^+ Treg (#130-091-041), T cell activation/expansion kit (#130-093-627) and Treg expansion kit (#130-095-925) were purchased from the Miltenyi Biotec (Auburn, CA). Recombinant mouse TGF-β (#763104), IL-10 (#575106), and TNF-α (#575206) were obtained from BioLegend (San Diego, CA).
molecule,measurement,setting,value
"CC(O)C(=O)O (stereo not drawn) [LA, lactic acid]",apoptosis determined by Annexin V staining,mouse CD8+ T cells,higher percentage of apoptosis
same,expression of PD-1 and TIM-3 of CD8+ T cells,mouse CD8+ T cells,increased
same,production of cytokines including TNF-alpha and IFN-gamma,mouse CD8+ T cells,reduced
CC(C)(C)c1ccc(OCC(=O)NCCNC(=O)COc2ccc(C(C)(C)C)cc2)cc1 [NIC3],NAC1 homodimerization,NAC1,can interrupt NAC1 homodimerization
same,antitumor activity,tumor growth,shows antitumor activity
TNF-α,FoxP3 and acetylated FoxP3 in Tregs,Tregs,evident downregulation
same,NAC1 expression in Tregs,Tregs,robust upregulation
"IL-10: recombinant mouse cytokine from BioLegend (protein, UniProt P18893 19-178, looked up) Interleukin-10: SRGQYSREDNNCTHFPVGQSHMLLELRTAFSQVKTFFQTKDQLDNILLTDSLMQDFKGYLGCQALSEMIQFYLVEVMPQAEKHGPEIKEHLNSLGEKLKTLRMRLRRCHRFLPCENKSKAVEQVKSDFNKLQDQGVYKAMNEFDIFINCIEAYMMIKMKS",FoxP3 and acetylated FoxP3 in Tregs,Tregs,evident downregulation
same,NAC1 expression in Tregs,Tregs,robust upregulation
